In article PMC11224242, “Structural and functional characterization of cyclic pyrimidine-regulated anti-phage system” (Nature Communications, 2024) one finds LC-MS/MS, Kd and stoichiometry N data, which are given here for 3 compounds.

One experiment concerns the target T1, EaPycC (Elizabethkingia anophelis, UniProt A0AAT8XUA8).
T1 construct: full-length, thioredoxin-His tag cut by TEV, extra N-terminal Gly, E. coli BL21(DE3); homodimer
T1 sequence (A0AAT8XUA8 2-342): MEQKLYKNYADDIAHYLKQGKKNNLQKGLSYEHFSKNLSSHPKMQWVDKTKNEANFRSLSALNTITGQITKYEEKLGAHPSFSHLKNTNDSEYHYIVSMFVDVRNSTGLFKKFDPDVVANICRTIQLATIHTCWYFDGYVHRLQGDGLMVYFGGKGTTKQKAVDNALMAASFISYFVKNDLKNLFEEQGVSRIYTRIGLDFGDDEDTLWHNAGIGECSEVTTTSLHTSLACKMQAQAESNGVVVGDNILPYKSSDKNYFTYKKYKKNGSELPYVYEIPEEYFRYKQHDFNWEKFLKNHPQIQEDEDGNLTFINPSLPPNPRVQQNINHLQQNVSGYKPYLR
Briefly: LC-MS/MS. The experiment is classed as biochemical. The conditions noted are these: 0.5 mM CTP, 1 μM enzyme, 25 °C overnight.

The target of a further experiment is NpPycTIRCNBD (Novosphingobium pentaromativorans, UniProt A0AAT8XUA9). Briefly: isothermal titration calorimetry. The experiment is classed as binding. From the text:
isothermal titration calorimetry on NpPycTIRCNBD

For experiment [1], the target named is SmPycTIRCNBD (Stenotrophomonas maltophilia). Put plainly: isothermal titration calorimetry. The experiment is classed as binding. An excerpt:
isothermal titration calorimetry on SmPycTIRCNBD
A general note: In ITC the heat of successive injections is recorded.

The target of the next experiment is T2, PsPycTIRCNBD (Pseudovibrio sp. W64, UniProt A0ACD6BAZ5).
T2 construct: dimer with cUMP
T2 sequence (A0ACD6BAZ5 entry or part of it): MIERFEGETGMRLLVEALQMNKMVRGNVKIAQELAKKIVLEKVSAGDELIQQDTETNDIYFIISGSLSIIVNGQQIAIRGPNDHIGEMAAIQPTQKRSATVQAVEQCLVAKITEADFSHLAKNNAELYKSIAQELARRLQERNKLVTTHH
Briefly: isothermal titration calorimetry. The experiment is classed as binding. From the text: isothermal titration calorimetry on PsPycTIRCNBD

In a further experiment the target is T3, AhPycTIRCNBD (Acinetobacter haemolyticus, UniProt N9FD06).
T3 construct: gene F927_00926
T3 sequence (N9FD06 entry or part of it): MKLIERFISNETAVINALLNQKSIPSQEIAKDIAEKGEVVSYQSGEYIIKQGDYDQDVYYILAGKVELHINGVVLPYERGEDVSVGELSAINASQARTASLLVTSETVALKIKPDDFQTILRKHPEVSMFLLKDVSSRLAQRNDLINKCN
Put plainly: isothermal titration calorimetry. In kind it is binding. From the text:
isothermal titration calorimetry on AhPycTIRCNBD

For a further experiment, the target named is T4, AnPycC (Anabaena sp. CA = ATCC 33047, UniProt A0ACD6BAV8).
T4 construct: full-length, thioredoxin-His tag cut by TEV, extra N-terminal Gly, E. coli BL21(DE3); monomer in solution, dimer in crystal
T4 sequence (A0ACD6BAV8 1-280): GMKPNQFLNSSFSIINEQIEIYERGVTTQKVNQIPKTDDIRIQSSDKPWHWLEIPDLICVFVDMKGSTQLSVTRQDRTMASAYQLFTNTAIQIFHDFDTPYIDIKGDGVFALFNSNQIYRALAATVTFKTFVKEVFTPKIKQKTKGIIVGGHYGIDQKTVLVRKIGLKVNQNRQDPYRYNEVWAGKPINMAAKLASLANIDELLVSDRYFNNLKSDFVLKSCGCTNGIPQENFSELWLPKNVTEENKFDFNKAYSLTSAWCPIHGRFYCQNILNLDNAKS
Put plainly: LC-MS/MS. Particulars: 0.5 mM UTP, 1 μM enzyme, pH 9.0, 25 °C overnight. In kind it is biochemical.

Experiment [2] deals with cUMP-bound PycTIR (gel-filtration data). Put plainly: SEC; gel filtration of cUMP-bound PycTIR (Supplementary Fig. 10). (Size exclusion chromatography separates by hydrodynamic size, large species first.)

pKd: −log10 of the molar value. Values joined by “and” are separate entries in the source; they are usually repeats but may differ in a detail not shown here. Identical values can stand only once.

Chain of NpPycTIRCNBD (A0AAT8XUA9 entry or part of it): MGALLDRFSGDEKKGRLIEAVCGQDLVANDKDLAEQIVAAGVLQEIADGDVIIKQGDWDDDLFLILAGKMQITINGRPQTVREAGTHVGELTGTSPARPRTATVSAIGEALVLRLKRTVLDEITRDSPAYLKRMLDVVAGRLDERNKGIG

For `Nc1ccn([C@@H]2O[C@@H]3COP(=O)(O)O[C@H]3[C@H]2O)c(=O)n1` [cCMP], the LC-MS/MS entry on EaPycC is recorded as “an elution peak corresponding to the cCMP product was detected”.
Turning to `O=c1ccn([C@@H]2O[C@@H]3COP(=O)(O)O[C@H]3[C@H]2O)c(=O)[nH]1` [cUMP], the pKd – broadly, the negative decadic logarithm of the Kd, by convention in mol/L – at NpPycTIRCNBD is 9.00; in experiment [1], 6.57; at PsPycTIRCNBD, 9.00; on AhPycTIRCNBD, 6.09. Also, the LC-MS/MS entry on AnPycC is recorded as “The production of cUMP by purified AnPycC proteins was confirmed by LC-MS/MS”.
Regarding cUMP-bound PycTIR (gel-filtration data), the stoichiometry N (commonly the number of molecules, sites or subunits per partner or assembly) in experiment [2] is 2 and 4.
